From patent publication US9475765B2, “Polymorphs of N- (2 -methoxybenzoyl) -4- [ (methylaminocarbonyl) amino] benzenesulfonamide” (Syngenta Limited, priority 2012, dated 2016)

Assay: Stability of polymorphs: slurry of Form 1, Form 2 and Form 3 in ethanol, crystal form examined by powder X-ray diffraction
Type: physicochemical
Experimental: Powder X-ray diffraction analysis of solid material was carried out using the Briker D8 powder diffractometer. Samples were mounted in Perspex sample holders and the samples flattened. The sample holder was rotated and X-rays were collected from 4° to 34° 2-theta, with a scan time of 25 to 30 minutes depending on the pattern intensity. Approximately 0.1 g each of Form 1, Form 2 and Form 3 were added to 10 ml of ethanol at 50° C. and 60° C. until there were solids out of solution (a slurry). The temperature was maintained with stirring and the crystal form examined after 2 and 8 days.

[1] = about 0.1 g each of Form 1, Form 2 and Form 3 in 10 ml ethanol, stirred slurry at 50° C. and 60° C.

| crystal form present in slurry after 2 days [1] | crystal form present in slurry after 8 days (about 0.1 g each of Form 1, Form 2 and Form 3 in 10 ml ethanol, stirred slurry at 50° C. and 60° C., 8 days in total) | stability relative to the other polymorphs (general statement in the description, Form 2 compared with Form 1 and Form 3) | SMILES |
| --- | --- | --- | --- |
| no evidence of Form 1 |  |  | CNC(=O)Nc1ccc(S(=O)(=O)NC(=O)c2ccccc2OC)cc1 [Form 1, N-(2-methoxybenzoyl)-4-[(methylaminocarbonyl)amino]benzenesulfonamide] |
| still present | complete conversion to Form 2 | stable polymorph | CNC(=O)Nc1ccc(S(=O)(=O)NC(=O)c2ccccc2OC)cc1 [Form 2, N-(2-methoxybenzoyl)-4-[(methylaminocarbonyl)amino]benzenesulfonamide] |
| still present |  |  | CNC(=O)Nc1ccc(S(=O)(=O)NC(=O)c2ccccc2OC)cc1 [Form 3, N-(2-methoxybenzoyl)-4-[(methylaminocarbonyl)amino]benzenesulfonamide] |
